The test has as its target human PKR1 receptors (Homo sapiens (Human), UniProt Q8TCW9). The test is described as follows: PKR1 antagonist assay: block of PK1-mediated intracellular calcium release (FLIPR Tetra). It counts as cell-based. Conditions: RBL2H3 cells expressing human PKR1; stimulation with PK1 at EC80; calcium fluorescence. As to the method: Prokineticin receptor 1 (PKR1) antagonists may be functionally assessed by measurement of change in intracellular calcium levels induced by Gq mediated increase in inositol triphosphate (IP3) levels. The ability of a compound to block the intracellular release of calcium mediated by PK1 in RBL2H3 cells expressing human PKR1 receptors is determined as a measure of the compound's antagonist activity in vitro.
Approximately 10,000 cells per assay well are seeded in normal culture medium in a 384 well plate (Corning). Twenty-four hours after seeding, the cells are loaded with a calcium sensitive fluorescent dye by replacing the culture medium with assay buffer (1× Hanks buffered saline, 25 mM HEPES, 0.1% w/v fatty acid free BSA (bovine serum albumin), pH 7.4) containing 1 mM probenecid and 1× Calcium 5 Reagent (Molecular Devices). Cells are incubated at 37° C. for 1 hour to allow for dye uptake.
To test for antagonist activity, test compounds at a final concentration range between 0.32 nM-10 μM (diluted in assay buffer) are added to the assay wells and allowed to incubate for 10 minutes prior to stimulation with PK1. After incubation with test compounds the assay plate is placed in a FLIPR Tetra (Molecular Devices) and PK1 (diluted in assay buffer) is added at the determined EC80 concentration (final). Ligand-dependent changes in intracellular calcium levels are determined by measuring changes in fluorescence of the dye at […] following excitation at 485 nm.

Experimental findings from US9790201B2, “Piperidine and azepine derivatives as prokineticin receptor modulators” (TAKEDA PHARMACEUTICAL COMPANY LIMITED, priority 2013, dated 2017) are described below.

Sequence of human PKR1 receptors (Q8TCW9 whole entry): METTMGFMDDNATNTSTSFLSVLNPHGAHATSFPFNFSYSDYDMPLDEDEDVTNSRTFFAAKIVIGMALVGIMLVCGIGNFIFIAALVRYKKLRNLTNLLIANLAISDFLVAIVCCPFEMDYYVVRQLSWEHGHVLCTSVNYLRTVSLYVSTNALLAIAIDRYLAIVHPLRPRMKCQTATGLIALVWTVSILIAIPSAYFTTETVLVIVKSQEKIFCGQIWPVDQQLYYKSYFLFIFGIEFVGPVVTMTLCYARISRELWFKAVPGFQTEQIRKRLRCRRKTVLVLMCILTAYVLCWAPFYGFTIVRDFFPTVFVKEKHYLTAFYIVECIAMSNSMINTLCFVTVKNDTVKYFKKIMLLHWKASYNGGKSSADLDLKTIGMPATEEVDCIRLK

For the molecule `Cc1cc(Cl)ccc1C1(O)CCCN(C(=O)c2ccnc(N(C)C)c2)C1` (centres unmarked) [Example 116, 3-(4-Chloro-2-methylphenyl)-1-{[2-(dimethylamino)pyridin-4-yl]carbonyl}piperidin-3-ol], the IC50 turned out to be 1360 nM. For `CNc1cc(C(=O)N2CCC[C@@H](c3ccc(Cl)cc3C)C2)cnn1` (single isomer, unassigned) [Example 73], the half-maximal inhibitory concentration (IC50) turned out to be 1180 nM. The figure for `CNc1cc(C(=O)N2CCCC(c3ccc(C(F)(F)F)cc3)C2)ccn1` (centres unmarked) [Example 53, N-Methyl-4-({3-[4-(trifluoromethyl)phenyl]piperidin-1-yl}carbonyl)pyridin-2-amine] is 2920 nM. Regarding `Cc1cc(Cl)ccc1C1CCCN(C(=O)c2cnn(C)c2N)C1` (centres unmarked) [Example 95, 4-{[3-(4-Chloro-2-methylphenyl)piperidin-1-yl]carbonyl}-1-methyl-1H-pyrazol-5-amine], the IC50 was determined as 150 nM. `CNc1cc(C(=O)N2CCCC(c3ccc(OC)cc3C)C2)ccn1` (centres unmarked) [Example 63, 4-{[3-(4-Methoxy-2-methylphenyl)piperidin-1-yl]carbonyl}-N-methylpyridin-2-amine]: the IC50 is 40 nM. The figure for `CN(C)c1cc(C(=O)N2CCCCC(c3ccccc3)C2)ccn1` (centres unmarked) [Example 107, N,N-Dimethyl-4-[(3-phenylazepan-1-yl)carbonyl]pyridin-2-amine] is 2970 nM; for `Cc1ccc(C2CCCN(C(=O)c3ccnc(N(C)C)c3)C2)cc1` (single isomer, unassigned) [Example 50, N,N-Dimethyl-4-{[3-(4-methylphenyl)piperidin-1-yl]carbonyl}pyridin-2-amine] it is 990 nM. For `CCCN(C)c1cc(C(=O)N2CCCC(c3ccc(C)cc3)C2)ccn1` (centres unmarked) [Example 39, N-Methyl-4-{[3-(4-methylphenyl)piperidin-1-yl]carbonyl}-N-propylpyridin-2-amine] the value was 8220 nM; for `Cc1ccc(C2CCCN(C(=O)c3ccnc(N(C)C(C)C)c3)C2)cc1` (centres unmarked) [Example 40, N-Methyl-4-{[3-(4-methylphenyl)piperidin-1-yl]carbonyl}-N-(propan-2-yl)pyridin-2-amine], 7030 nM. For `Cc1nn(C)cc1C(=O)N1CCCC(c2ccc(Cl)cc2C(F)(F)F)C1` (centres unmarked) [Example 103, 3-[4-Chloro-2-(trifluoromethyl)phenyl]-1-[(1,3-dimethyl-1H-pyrazol-4-yl)carbonyl]piperidine] the value was 490 nM. As for `CC(C)c1cc(C(=O)N2CCCC(c3ccc(Cl)cc3)C2)ccn1` (centres unmarked) [Example 30, 4-{[3-(4-Chlorophenyl)piperidin-1-yl]carbonyl}-2-(propan-2-yl)pyridine], the half-maximal inhibitory concentration (IC50) is 830 nM. For `COc1ccccc1C1CCCN(C(=O)c2ccnc(N(C)C)c2)C1` (centres unmarked) [Example 48, 4-{[3-(2-Methoxyphenyl)piperidin-1-yl]carbonyl}-N,N-dimethylpyridin-2-amine] the value was 410 nM; for `Cc1cc(Cl)ccc1C1CCCN(C(=O)c2cnn(C(C)C)c2)C1` (centres unmarked) [Example 93, 3-(4-Chloro-2-methylphenyl)-1-{[1-(propan-2-yl)-1H-pyrazol-4-yl]carbonyl}piperidine], 180 nM; for `COc1ccc(C2CCCN(C(=O)c3cn(C)nc3N)C2)c(C)c1` (centres unmarked) [Example 102, 4-{[3-(4-Methoxy-2-methylphenyl)piperidin-1-yl]carbonyl}-1-methyl-1H-pyrazol-3-amine], 1540 nM. As to `CNc1cc(C(=O)N2CCCCC(c3ccc(OC)cc3)C2)ccn1` (centres unmarked) [Example 110, 4-{[3-(4-Methoxyphenyl)azepan-1-yl]carbonyl}-N-methylpyridin-2-amine], the IC50 turned out to be 450 nM. In the case of `Cc1cc(C(=O)N2CCCC(c3ccc(Cl)cc3C(F)(F)F)C2)ccn1` (centres unmarked) [Example 10, 4-({3-[4-Chloro-2-(trifluoromethyl)phenyl]piperidin-1-yl}carbonyl)-2-methylpyridine], the 50% inhibitory concentration (IC50) was 1170 nM. `CNc1cc(C(=O)N2CCCC(c3ccc(C(F)(F)F)cc3OC)C2)cnn1` (centres unmarked) [Example 78, 5-({3-[2-Methoxy-4-(trifluoromethyl)phenyl]piperidin-1-yl}carbonyl)-N-methylpyridazin-3-amine]: the IC50 was 3000 nM. For `COc1ccc(C2CCCN(C(=O)c3cn(C)nc3C)C2)c(C)c1` (centres unmarked) [Example 101, 1-[(1,3-Dimethyl-1H-pyrazol-4-yl)carbonyl]-3-(4-methoxy-2-methylphenyl)piperidine] the value was 1030 nM; for `CCOc1cc(Cl)ccc1C1CCCN(C(=O)c2ccnc(NC)c2)C1` (centres unmarked) [Example 65, 4-{[3-(4-Chloro-2-ethoxyphenyl)piperidin-1-yl]carbonyl}-N-methylpyridin-2-amine], 70 nM.

Take `Cc1ccc(C2CCCN(C(=O)c3ccnc(N(C)C4CC4)c3)C2)cc1` (centres unmarked) [Example 43, N-Cyclopropyl-N-methyl-4-{[3-(4-methylphenyl)piperidin-1-yl]carbonyl}pyridin-2-amine]: the IC50 worked out at 7050 nM. With `Cn1cc(C(=O)N2CCCC(c3ccc(Cl)cc3C(F)(F)F)C2)c(N)n1` (centres unmarked) [Example 100, 4-({3-[4-Chloro-2-(trifluoromethyl)phenyl]piperidin-1-yl}carbonyl)-1-methyl-1H-pyrazol-3-amine], the IC50 stood at 540 nM. The figure for `CCc1cc(C(=O)N2CCCC(c3ccc(Cl)cc3C(F)(F)F)C2)ccn1` (centres unmarked) [Example 6, 4-({3-[4-Chloro-2-(trifluoromethyl)phenyl]piperidin-1-yl}carbonyl)-2-ethylpyridine] is 280 nM. For `CCN(C)c1cc(C(=O)N2CCCC(c3ccc(C)cc3)C2)ccn1` (centres unmarked) [Example 37, N-Ethyl-N-methyl-4-{[3-(4-methylphenyl)piperidin-1-yl]carbonyl}pyridin-2-amine] the value was 5530 nM; for `Cc1ccc(C2CCCN(C(=O)c3ccnc(N(C)C)c3)C2)cc1` (centres unmarked) [Example 49, N,N-Dimethyl-4-{[3-(4-methylphenyl)piperidin-1-yl]carbonyl}pyridin-2-amine], 420 nM. The figure for `CN(C)c1cc(C(=O)N2CCCC(c3ccc(F)cc3Cl)C2)ccn1` (centres unmarked) [Example 26, 4-{[3-(2-Chloro-4-fluorophenyl)piperidin-1-yl]carbonyl}-N,N-dimethylpyridin-2-amine] is 470 nM; for `CN(C)c1cc(C(=O)N2CCCC(c3ccccc3OC(F)(F)F)C2)ccn1` (centres unmarked) [Example 60, N,N-Dimethyl-4-({3-[2-(trifluoromethoxy)phenyl]piperidin-1-yl}carbonyl)pyridin-2-amine] it is 1600 nM. As for `COc1ccc(C2CCCN(C(=O)c3ccnc(N(C)C)c3)C2)c(C(F)(F)F)c1` (centres unmarked) [Example 62, 4-({3-[4-Methoxy-2-(trifluoromethyl)phenyl]piperidin-1-yl}carbonyl)-N,N-dimethylpyridin-2-amine], the IC50 was found to be 100 nM. For `CN(C)c1cc(C(=O)N2CCCC(c3ccccc3)C2)ccn1` (centres unmarked) [Example 15, N,N-Dimethyl-4-[(3-phenylpiperidin-1-yl)carbonyl]pyridin-2-amine] the value was 1140 nM; for `Cc1ccccc1C1CCCN(C(=O)c2ccnc(N3CCC3)c2)C1` (centres unmarked) [Example 23, 2-(Azetidin-1-yl)-4-{[3-(2-methylphenyl)piperidin-1-yl]carbonyl}pyridine], 960 nM. With `O=C(c1cn[nH]c1)N1CCCC(c2ccc(Cl)cc2C(F)(F)F)C1` (centres unmarked) [Example 96, 3-[4-Chloro-2-(trifluoromethyl)phenyl]-1-[(1H-pyrazol-4-yl)carbonyl]piperidine], the IC50 was found to be 2440 nM. For `CN(C)c1cc(C(=O)N2CCCC(c3ccccc3C#N)C2)ccn1` (centres unmarked) [Example 67, 2-(1-{[2-(Dimethylamino)pyridin-4-yl]carbonyl}piperidin-3-yl)benzonitrile] the value was 2260 nM; for `CNc1cc(C(=O)N2CCCCC(c3ccc(Cl)cc3)C2)cnn1` (centres unmarked) [Example 113, 5-{[3-(4-Chlorophenyl)azepan-1-yl]carbonyl}-N-methylpyridazin-3-amine], 930 nM; for `CCn1cc(C(=O)N2CCCC(c3ccc(Cl)cc3C)C2)cn1` (centres unmarked) [Example 92, 3-(4-Chloro-2-methylphenyl)-1-[(1-ethyl-1H-pyrazol-4-yl)carbonyl]piperidine], 110 nM. The figure for `COc1ccc(C2CCCN(C(=O)c3ccnc(N(C)C)c3)C2)cc1` (centres unmarked) [Example 47, 4-{[3-(4-Methoxyphenyl)piperidin-1-yl]carbonyl}-N,N-dimethylpyridin-2-amine] is 460 nM; for `CN(C)c1cc(C(=O)N2CCC[C@H](c3ccc(Cl)cc3)C2)ccn1` [Example 18, 4-{[(3R)-3-(4-Chlorophenyl)piperidin-1-yl]carbonyl}-N,N-dimethylpyridin-2-amine] it is 180 nM; for `CN(C)c1cc(C(=O)N2CCCC(c3ccc(F)cc3)C2)ccn1` (centres unmarked) [Example 19, 4-{[3-(4-Fluorophenyl)piperidin-1-yl]carbonyl}-N,N-dimethylpyridin-2-amine] it is 1220 nM.

As to `CNc1cc(C(=O)N2CCCCC(c3ccc(OC)cc3)C2)cnn1` (centres unmarked) [Example 112, 5-{[3-(4-Methoxyphenyl)azepan-1-yl]carbonyl}-N-methylpyridazin-3-amine], the IC50 is 1270 nM. In the case of `CN(C)c1cc(C(=O)N2C=C(c3ccc(Cl)cc3Cl)CCC2)ccn1` [Example 106, 4-{[5-(2,4-Dichlorophenyl)-1,2,3,4-tetrahydropyridin-1-yl]carbonyl}-N,N-dimethylpyridin-2-amine], the IC50 amounted to 1230 nM.
